The subject of this test is AUD patients. The experiment in a line: Drinking-related problems, Short Index of Problems (SIP-2R). It is filed as in vivo, human. Particulars: week 36. From the text: The pre-specified primary drinking outcome was the percentage of heavy drinking days (PH DD) during […], assessed at weeks 8, 12, 24, and 36 using the timeline followback, a reliable and valid calendar-based method which is the gold standard outcome for AUD clinical trials.^43-47 Secondary outcomes included percent drinking days (PDD), average drinks per day (DPD), and dichotomous outcomes: abstinence, lack of heavy drinking days, and reduction in World Health Organization risk level^48 by one, two, or three levels. Hair or fingernail samples were collected at week 24 and assayed for ethylglucuronide (EtG) concentration to confirm self-reported abstinence. The Short Index of Problems (SIP-2R)^49 was used to assess drinking-related problems at baseline and weeks 12, 24, and 36.
Treatment contrasts for dichotomous outcomes were obtained using Chi-squared statistics. Effects of treatment on problems related to drinking were compared using univariate mixed models for repeated measures (MMRM) and generalized linear models. Hedges'g was computed as a measure of effect size for between- and within-group differences on continuous outcomes, and odds ratios were computed for dichotomous outcomes. No correction was made for multiple comparisons, so analyses of secondary outcomes should be considered exploratory.

SMILES strings stand for the structures.

On to `CN(C)CCc1c[nH]c2cccc(OP(=O)(O)O)c12` [Psilocybin, [3-[2-(dirnethylamino)ethyl]-1H-indo1-4-yl] dihydrogen phosphate], for which the “Total Problems score, between-group Hedges' g” value turned out to be 0.67 and the “Total Problems score, between-group mean difference” value is 6.41.

The record behind these values is patent US20240000814A1, “TREATING ALCOHOL USE DISORDER USING PSILOCYBIN” (New York University, priority 2022, published 2024).
